Assay results: ChEMBL document CHEMBL5346916, “Discovery of acridine-based LSD1 inhibitors as immune activators targeting LSD1 in gastric cancer” (Eur J Med Chem, 2023)
Each block holds one compound with its values, some of them ahead of it. The source made the active and inactive calls. The calls are words filed in the database; no cut-off is given here.

Assays:
[1] = target: T1, Lysine-specific histone demethylase 1A (Homo sapiens, UniProt O60341); experiment: Inhibition of recombinant LSD1 (unknown origin) expressed in Escherichia coli BL21(DE3) strain using H3K4me2 peptide as substrate at 10 uM incubated for 30 mins by fluorescence based analysis relative to control
[2] = target: T1, Lysine-specific histone demethylase 1A; experiment: Inhibition of recombinant LSD1 (unknown origin) expressed in Escherichia coli BL21(DE3) strain using H3K4me2 peptide as substrate incubated for 30 mins by fluorescence based analysis
[3] = target: T1, Lysine-specific histone demethylase 1A; experiment: Binding affinity to recombinant LSD1 (unknown origin) assessed as thermal stability at 4 uM by thermal shift assay
[4] = target: T1, Lysine-specific histone demethylase 1A; experiment: Inhibition of LSD1 (unknown origin) human BGC-823 cells assessed as suppression of H3K4me1 methylation measured after 5 days by Western blot analysis; assay type: cell-based; conditions: dose 1-4 µM, time 5.0 day
[5] = target: T1, Lysine-specific histone demethylase 1A; experiment: Inhibition of LSD1 in human BGC-823 cells assessed as suppression of H3K4me2 methylation measured after 5 days by Western blot analysis; assay type: cell-based; conditions: dose 1-4 µM, time 5.0 day
BGC-823 [6] = experiment: Inhibition of stemness in human BGC-823 cells assessed as inhibition of CD44 expression at 1 to 4 uM measured after 5 days by Western blot analysis; assay type: functional, cell-based; conditions: dose 1-4 µM, time 5.0 day
BGC-823 [7] = experiment: Inhibition of stemness in human BGC-823 cells assessed as inhibition of OCT4 expression at 1 to 4 uM measured after 5 days by Western blot analysis; assay type: functional, cell-based; conditions: dose 1-4 µM, time 5.0 day
BGC-823 [8] = experiment: Inhibition of stemness in human BGC-823 cells assessed as inhibition of SOX2 expression at 1 to 4 uM measured after 5 days by Western blot analysis; assay type: functional, cell-based; conditions: dose 1-4 µM, time 5.0 day
BGC-823 [9] = experiment: Antimigratory activity against human BGC-823 cells assessed as reduction in cell migration at 1 to 4 uM measured after 24 to 48 hrs by wound healing assay; assay type: functional, cell-based; conditions: dose 1-4 µM, time 24-48 hrs
BGC-823 [10] = experiment: Downregulation of PD-L1 level in human BGC-823 cells incubated for 5 days by Western blot analysis; assay type: functional, cell-based; conditions: dose 1-4 µM, time 5.0 day
MFC [11] = experiment: Downregulation of PD-L1 level in […] cells incubated for 5 days by Western blot analysis; assay type: functional, cell-based; conditions: dose 1-4 µM, time 5.0 day
BGC-823 [12] = experiment: Downregulation of PD-L1 mRNA level in human BGC-823 cells at 1 to 4 uM incubated for 5 days by Q-RT-PCR analysis; assay type: functional, cell-based; conditions: dose 1-4 µM, time 5.0 day
MFC [13] = experiment: Downregulation of PD-L1 mRNA level in […] cells at 1 to 4 uM incubated for 5 days by Q-RT-PCR analysis; assay type: functional, cell-based; conditions: dose 1-4 µM, time 5.0 day
MFC [14] = experiment: Antitumor activity against mouse MFC cells xenografted in 615 mouse model assessed as suppression in tumor growth administered as IG daily and measured every other day for 14 days by caliper method; assay type: functional; conditions: dose 10-40 mg/kg, time 14.0 day
MFC [15] = experiment: Antitumor activity against mouse MFC cells xenografted in 615 mouse model assessed as reduction in tumor weight at 10 to 40 mg/kg, IG administered daily and measured every other day for 14 days […]; assay type: functional, organism-based; conditions: dose 10-40 mg/kg, time 14.0 day
MFC [16] = experiment: Antitumor activity against mouse MFC cells xenografted in 615 mouse model assessed as decrease in PD-L1 level administered as IG daily and measured every other day for 14 days by Western blot analysis; assay type: functional; conditions: dose 10-40 mg/kg, time 14.0 day
MFC [17] = experiment: Antitumor activity against mouse MFC cells xenografted in 615 mouse model assessed as increase in IFN-gamma m-RNA level at 10 to 40 mg/kg, IG administered daily and measured every other day for 14 days; assay type: functional, organism-based; conditions: dose 10-40 mg/kg, time 14.0 day
MFC [18] = experiment: Antitumor activity against mouse MFC cells xenografted in 615 mouse model assessed as increase in TNF-alpha m-RNA level at 10 to 40 mg/kg, IG administered daily and measured every other day for 14 days; assay type: functional, organism-based; conditions: dose 10-40 mg/kg, time 14.0 day
MFC [19] = experiment: Antitumor activity against mouse MFC cells xenografted in 615 mouse model assessed as increase in IL-2 m-RNA level at 10 to 40 mg/kg, IG administered daily and measured every other day for 14 days; assay type: functional, organism-based; conditions: dose 10-40 mg/kg, time 14.0 day
BGC-823 [20] = experiment: Cytotoxicity against human BGC-823 cells co-cultured with T cells assessed as reduction in cell viability measured after 5 days by CCK8 method; assay type: functional, cell-based; conditions: dose 1-4 µM, time 5.0 day
[21] = Cytotoxicity against […] cells at 2 uM incubated for 5 days by CCK-8 method relative to control; assay type: functional; conditions: time 5 day
[22] = target: Programmed cell death protein 1/Programmed cell death 1 ligand 1 (Homo sapiens) (UniProt Q15116+Q9NZQ7); experiment: Inhibition of recombinant PD-1 binding to PD-L1 in human BGC-823 cells measured after 5 days by DAPI staining based confocal microscopy analysis; assay type: cell-based; conditions: dose 1-4 µM, time 5.0 day
BGC-823 [23] = experiment: Cytotoxicity against human BGC-823 cells co-cultured with T cells assessed as increase in 4-1BB level at 2 uM measured after 5 days by Q-RT-PCR method; assay type: functional, cell-based; conditions: time 5.0 day
BGC-823 [24] = experiment: Cytotoxicity against human BGC-823 cells co-cultured with T cells assessed as increase in CCR7 level at 2 uM measured after 5 days by Q-RT-PCR method; assay type: functional, cell-based; conditions: time 5.0 day
BGC-823 [25] = experiment: Cytotoxicity against human BGC-823 cells co-cultured with T cells assessed as increase in IFN-gamma level at 2 uM measured after 5 days by Q-RT-PCR method; assay type: functional, cell-based; conditions: time 5.0 day
BGC-823 [26] = experiment: Cytotoxicity against human BGC-823 cells co-cultured with T cells assessed as increase in IL-2 level at 2 uM measured after 5 days by Q-RT-PCR method; assay type: functional, cell-based; conditions: time 5.0 day
BGC-823 [27] = experiment: Cytotoxicity against human BGC-823 cells co-cultured with T cells assessed as increase in TNF-alpha level at 2 uM measured after 5 days by Q-RT-PCR method; assay type: functional, cell-based; conditions: time 5.0 day
[28] = Toxicity in 615 mouse assessed as change in body weight at 10 to 40 mg/kg, IG administered daily and measured every other day for 14 days; assay type: organism-based; conditions: in vivo, po, 336 h, dose 10-40 mg/kg, time 14 day
[29] = Toxicity in 615 mouse assessed as at 10 to 40 mg/kg, IG liver injury administered daily and measured every other day for 14 days; assay type: organism-based; conditions: in vivo, po, 336 h, dose 10-40 mg/kg, time 14 day
[30] = Toxicity in 615 mouse assessed as at 10 to 40 mg/kg, IG kidney injury administered daily and measured every other day for 14 days; assay type: organism-based; conditions: in vivo, po, 336 h, dose 10-40 mg/kg, time 14 day

SMILES: c1ccc(CN2CCN(c3ccc(Nc4c5ccccc5nc5ccccc45)cc3)CC2)cc1
inhibition [1]: 97%
IC50 [2]: 2390 nM

SMILES: Nc1ccc(Nc2c3ccccc3nc3ccccc23)cc1
inhibition [1]: 100%
IC50 [2]: 600 nM

SMILES: Fc1ccc(C(c2ccc(F)cc2)N2CCN(c3ccc(Nc4c5ccccc5nc5ccccc45)cc3)CC2)cc1
inhibition [1]: 68.1%
IC50 [2]: 710 nM

SMILES: COc1cc(NS(C)(=O)=O)ccc1Nc1c2ccccc2nc2ccccc12 [AMSACRINE]
inhibition [1]: 100%
IC50 [2]: 880 nM

SMILES: Cc1cnc(NS(=O)(=O)c2ccc(Nc3c4ccccc4nc4ccccc34)cc2)o1
inhibition [1]: 19.2%

SMILES: CC(C)c1ccc(Nc2c3ccccc3nc3ccccc23)cc1
inhibition [1]: 43.4%

SMILES: c1ccc2c(NN3CCCCC3)c3ccccc3nc2c1
inhibition [1]: 95.3%
IC50 [2]: 1660 nM

SMILES: c1ccc2c(Nc3ccc(N4CCCCC4)cc3)c3ccccc3nc2c1
inhibition [1]: 25%

SMILES: CN1CCN(c2ccc(Nc3c4ccccc4nc4c(N(C)C)cccc34)cc2)CC1
inhibition [1]: 97%
IC50 [2]: 6030 nM

SMILES: c1ccc2c(Nc3ccc4c(c3)OCCO4)c3ccccc3nc2c1
inhibition [1]: 97.7%
IC50 [2]: 850 nM

SMILES: Nc1ccccc1Nc1c2ccccc2nc2ccccc12
inhibition [1]: 100%
IC50 [2]: 8230 nM

SMILES: Nc1ccc(Oc2c3ccccc3nc3ccccc23)cc1
inhibition [1]: 100%
IC50 [2]: 1720 nM

SMILES: O=C1COCCN1c1ccc(Nc2c3ccccc3nc3ccccc23)cc1
inhibition [1]: 41%

SMILES: CN1CCN(Cc2ccc(Nc3c4ccccc4nc4ccccc34)cc2)CC1
inhibition [1]: 45.6%

SMILES: Cc1ccc(Nc2c3ccccc3nc3ccccc23)cc1
inhibition [1]: 57.9%
IC50 [2]: 3620 nM

SMILES: CC(=O)Nc1ccc(Nc2c3ccccc3nc3ccccc23)cc1
inhibition [1]: 67.8%
IC50 [2]: 3540 nM

SMILES: N#Cc1ccc(Nc2c3ccccc3nc3ccccc23)cc1
inhibition [1]: 29.8%

SMILES: c1ccc2c(NCCN3CCOCC3)c3ccccc3nc2c1
inhibition [1]: 22.4%

SMILES: CS(=O)(=O)Nc1ccc(Nc2c3ccccc3nc3ccccc23)cc1
inhibition [1]: 100%
IC50 [2]: 660 nM

SMILES: CSc1ccc(Nc2c3ccccc3nc3ccccc23)cc1
inhibition [1]: 79.7%
IC50 [2]: 740 nM

SMILES: Cc1ccc2cc(Nc3c4ccccc4nc4ccccc34)ccc2n1
inhibition [1]: 68.6%
IC50 [2]: 3860 nM

SMILES: NS(=O)(=O)c1ccc(Nc2c3ccccc3nc3ccccc23)cc1
inhibition [1]: 4.01%

SMILES: c1ccc(Nc2c3ccccc3nc3ccccc23)cc1
inhibition [1]: 99.2%
IC50 [2]: 1050 nM

SMILES: COc1ccc(Nc2c3ccccc3nc3ccccc23)cc1
inhibition [1]: 100%
IC50 [2]: 1160 nM

SMILES: CCn1c2ccccc2c2ccc(Nc3c4ccccc4nc4ccccc34)cc21
inhibition [1]: 97.2%
IC50 [2]: 700 nM

SMILES: Nc1ccc(Sc2c3ccccc3nc3ccccc23)cc1
inhibition [1]: 100%
IC50 [2]: 970 nM

The remaining compounds from weak to strong by IC50 [2], led by results:

inhibition [1]: 100%
IC50 [2]: 450 nM
SMILES: c1ccc2c(Nc3ccc(N4CCOCC4)cc3)c3ccccc3nc2c1

inhibition [1]: 100%
IC50 [2]: 280 nM
SMILES: CN1CCN(c2ccc(Nc3c4ccccc4nc4ccc(Cl)cc34)cc2)CC1

inhibition [1]: 100%
IC50 [2]: 230 nM
SMILES: CC(C)c1ccc2nc3ccccc3c(Nc3ccc(N4CCN(C)CC4)cc3)c2c1

inhibition [1]: 100%
IC50 [2]: 230 nM
SMILES: COc1ccc2nc3ccccc3c(Nc3ccc(N4CCN(C)CC4)cc3)c2c1

inhibition [1]: 100%
IC50 [2]: 220 nM
SMILES: c1ccc2c(Nc3ccc(N4CCNCC4)cc3)c3ccccc3nc2c1

inhibition [1]: 100%
IC50 [2]: 140 nM
SMILES: COc1ccc2c(Nc3ccc(N4CCN(C)CC4)cc3)c3ccccc3nc2c1

inhibition [1]: 100%
IC50 [2]: 130 nM
SMILES: COc1cccc2c(Nc3ccc(N4CCN(C)CC4)cc3)c3ccccc3nc12

inhibition [1]: 100%
IC50 [2]: 110 nM
SMILES: CCN1CCN(c2ccc(Nc3c4ccccc4nc4ccccc34)cc2)CC1

inhibition [1]: 100%
IC50 [2]: 100 nM
SMILES: Cc1ccc2nc3c(C)c(C)ccc3c(Nc3ccc(N4CCN(C)CC4)cc3)c2c1

inhibition [1]: 100%
IC50 [2]: 85 nM
SMILES: Cc1cc2nc3ccccc3c(Nc3ccc(N4CCN(C)CC4)cc3)c2cc1C

inhibition [1]: 100%
IC50 [2]: 73 nM
Activity [3]: Active
inhibition [4]: Dose-Dependent Effect
inhibition [5]: Dose-Dependent Effect
SMILES: CN1CCN(c2ccc(Nc3c4ccccc4nc4ccccc34)cc2)CC1
inhibition (BGC-823 [6]): Active
inhibition (BGC-823 [7]): Active
inhibition (BGC-823 [8]): Active
Activity (BGC-823 [9]): Active
Activity (BGC-823 [10]): Dose-Dependent Effect
Activity (MFC [11]): Dose-Dependent Effect
Activity (BGC-823 [12]): Active
Activity (MFC [13]): Active
Activity (MFC [14]): Dose-Dependent Effect
Activity (MFC [15]): Active
Activity (MFC [16]): Dose-Dependent Effect
Activity (MFC [17]): Active
Activity (MFC [18]): Active
Activity (MFC [19]): Active
Activity (BGC-823 [20]): Dose-Dependent Effect
Activity [21]: <10%
inhibition [22]: Dose-Dependent Effect
Activity (BGC-823 [23]): Active
Activity (BGC-823 [24]): Active
Activity (BGC-823 [25]): Active
Activity (BGC-823 [26]): Active
Activity (BGC-823 [27]): Active
Activity [28]: Toxic
Activity [29]: Non-Toxic
Activity [30]: Non-Toxic
